Assay results published in patent US20060069132A1, “Azolecarboxamide herbicides” (priority 2004, published 2006).

What was measured:
[1] = system: barnyardgrass; test: Test B pre-/postemergence herbicide test; format: in vivo, Echinochloa crus-galli; settings: for Plant response rating (0 to 100 scale), Barnyardgrass: 0 is no effect, preemergence
How it was run: (§1)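 Greenhouse pot assay with simultaneous preemergence (treated seed) and postemergence (2–18 cm seedlings) applications of surfactant-containing, non-phytotoxic solvent formulations. Response scored visually 13–15 days later on a 0–100 scale, 100 meaning complete control.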

[2] = system: Surinam grass; test: Test B pre-/postemergence herbicide test; format: in vivo, Urochloa decumbens; settings: for Plant response rating (0 to 100 scale), Surinam Grass: 0 is no effect, 100 is complete control, preemergence
How it was run: (§2)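 Evaluation is visual, comparing treated with control plants on a scale where 0 means no effect and 100 means full control. Treatments were preemergence, or postemergence on seedlings 2–18 cm tall, and held 13–15 days in the greenhouse.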

[3] = system: cocklebur; test: Test B pre-/postemergence herbicide test; format: in vivo, Xanthium strumarium; settings: for Plant response rating (0 to 100 scale), Cocklebur: 0 is no effect, preemergence
How it was run: as §1

[4] = system: corn; test: Test B pre-/postemergence herbicide test; format: in vivo, Zea mays; settings: for Plant response rating (0 to 100 scale), Corn: 0 is no effect, preemergence
How it was run: as §2

[5] = system: large crabgrass; test: Test B pre-/postemergence herbicide test; format: in vivo, Digitaria sanguinalis; settings: for Plant response rating (0 to 100 scale), Crabgrass, Large: 0 is no effect, preemergence
How it was run: as §2

[6] = system: giant foxtail; test: Test B pre-/postemergence herbicide test; format: in vivo, Setaria faberi; settings: for Plant response rating (0 to 100 scale), Foxtail, Giant: 0 is no effect, preemergence
How it was run: as §2

[7] = system: lambsquarters; test: Test B pre-/postemergence herbicide test; format: in vivo, Chenopodium album; settings: for Plant response rating (0 to 100 scale), Lambsquarters: 0 is no effect, 100 is complete control, preemergence
How it was run: as §2

[8] = system: morningglory; test: Test B pre-/postemergence herbicide test; format: in vivo, Ipomoea coccinea; settings: for Plant response rating (0 to 100 scale), Morningglory: 0 is no effect, 100 is complete control, preemergence
How it was run: as §1

[9] = system: pigweed; test: Test B pre-/postemergence herbicide test; format: in vivo, Amaranthus retroflexus; settings: for Plant response rating (0 to 100 scale), Pigweed: 0 is no effect, 100 is complete control, preemergence
How it was run: as §2

[10] = system: velvetleaf; test: Test B pre-/postemergence herbicide test; format: in vivo, Abutilon theophrasti; settings: for Plant response rating (0 to 100 scale), Velvetleaf: 0 is no effect, 100 is complete control, preemergence
How it was run: as §2

[11] = system: blackgrass; test: Test B postemergence herbicide test; format: in vivo, Alopecurus myosuroides
How it was run: (§3)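 Greenhouse test; postemergence application to plants at 1–4 leaves (2–18 cm); paddy species at 2 leaves; evaluated visually vs controls at 13–15 days; scale 0–100 (100 = complete control).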

[12] = system: wheat; test: Test B postemergence herbicide test; format: in vivo, Triticum aestivum; design: key to Wheat plant response rating: 0 = no effect, 100 = complete control
How it was run: (§4)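 Read-out: visual comparison with controls, scored 0 to 100, where 100 means complete control and 0 no effect. Formulated chemicals were applied postemergence to plants 2–18 cm tall (1- to 4-leaf), or to flooded-paddy plants at the 2-leaf stage, then held 13 to 15 days under glass.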

[13] = system: wild oat; test: Test B postemergence herbicide test; format: in vivo, Avena fatua
How it was run: as §4

[14] = system: small flower umbrella sedge; test: Test B flooded paddy test; format: in vivo, Cyperus difformis; settings: 1000 g ai/ha, scale 0 to 100 (0 no effect, 100 complete control)
How it was run: as §3

[15] = 125 g ai/ha, 100 is complete control
[16] = 125 g ai/ha, visual rating, scale 0 (no effect) to 100 (complete control), postemergence
[17] = postemergence, 500 g ai/ha, scale 0 to 100, 0 is no effect, 100 is complete control
[18] = Postemergence, 500 g ai/ha, scale 0 (no effect) to 100 (complete control)
[19] = 500 g ai/ha, scale 0 to 100, 0 no effect, 100 complete control, preemergence
[20] = Postemergence, 125 g ai/ha, scale 0 (no effect) to 100 (complete control)
[21] = postemergence, 125 g ai/ha, scale 0 to 100

| SMILES | Plant response rating (0 to 100 scale), Barnyardgrass [1, 15] | Plant response rating (0 to 100 scale), Surinam Grass ([2]; 125 g ai/ha) | Surinam Grass plant response rating [2, 18] | Plant response rating (0 to 100 scale), Cocklebur [3, 15] | Plant response rating (0 to 100 scale), Corn [4, 15] | Plant response rating (0 to 100 scale), Crabgrass, Large [5, 15] | Plant response rating (0 to 100 scale), Foxtail, Giant [6, 15] | Plant response rating (0 to 100 scale), Lambsquarters ([7]; 125 g ai/ha) | Lambsquarters plant response rating [7, 18] | Plant response rating (0 to 100 scale), Morningglory ([8]; 125 g ai/ha) | Morningglory plant response rating [8, 18] | Plant response rating (0 to 100 scale), Pigweed ([9]; 125 g ai/ha) | Pigweed plant response rating [9, 18] | Plant response rating (0 to 100 scale), Velvetleaf ([10]; 125 g ai/ha) | Velvetleaf plant response rating [10, 18] | Wheat plant response rating [12, 19] | Wheat plant response rating [12, 18] | Oat, Wild plant response rating [13, 18] | Sedge, Umbrella plant response rating [14] | Barnyardgrass plant response rating [1, 20] | other results |
| --- | --- | --- | --- | --- | --- | --- | --- | --- | --- | --- | --- | --- | --- | --- | --- | --- | --- | --- | --- | --- | --- |
| CCc1nn(C(C)C)nc1C(=O)Nc1cccc(C(=O)N2CCCCC2)c1 [Compound 385] | 80 | 80 | 20 | 0 | 30 | 90 | 30 | 90 | 60 | 20 | 80 | 70 | 60 | 60 | 20 | 80 | 10 | 20 | 80 |  | Barnyardgrass plant response rating [1, 16]: 0; Barnyardgrass plant response rating [1, 17]: 10; Surinam Grass plant response rating [2, 16]: 0; Cocklebur plant response rating [3, 16]: 20; Cocklebur plant response rating [3, 17]: 50; Corn plant response rating [4, 16]: 10; Corn plant response rating [4, 17]: 10; Crabgrass, Large plant response rating [5, 16]: 0; Crabgrass, Large plant response rating [5, 17]: 20; Foxtail, Giant plant response rating [6, 16]: 10; Foxtail, Giant plant response rating [6, 17]: 20; Lambsquarters plant response rating [7, 16]: 50; Morningglory plant response rating [8, 16]: 30; Pigweed plant response rating [9, 16]: 50; Velvetleaf plant response rating [10, 16]: 20; Blackgrass plant response rating [11, 16]: 10; Blackgrass plant response rating [11, 17]: 30; Wheat plant response rating [12, 16]: 0; Oat, Wild plant response rating [13, 16]: 0 |
| CCc1nn(C(C)C)nc1C(=O)Nc1cccc(C(=O)N(C)CC)c1 [Compound 386] | 90 | 80 | 10 | 20 | 40 | 100 | 90 | 100 | 60 | 50 | 20 | 100 | 60 | 60 | 50 | 100 | 0 | 0 | 80 |  | Barnyardgrass plant response rating [1, 16]: 0; Barnyardgrass plant response rating [1, 17]: 10; Surinam Grass plant response rating [2, 16]: 10; Cocklebur plant response rating [3, 16]: 40; Cocklebur plant response rating [3, 17]: 50; Corn plant response rating [4, 16]: 0; Corn plant response rating [4, 17]: 10; Crabgrass, Large plant response rating [5, 16]: 10; Crabgrass, Large plant response rating [5, 17]: 20; Foxtail, Giant plant response rating [6, 16]: 20; Foxtail, Giant plant response rating [6, 17]: 20; Lambsquarters plant response rating [7, 16]: 30; Morningglory plant response rating [8, 16]: 20; Pigweed plant response rating [9, 16]: 50; Velvetleaf plant response rating [10, 16]: 40; Blackgrass plant response rating [11, 16]: 0; Blackgrass plant response rating [11, 17]: 40; Wheat plant response rating [12, 16]: 0; Oat, Wild plant response rating [13, 16]: 0 |
| CCn1nc(C(C)(C)C)cc1C(=O)Nc1cccc(OS(=O)(=O)CC)c1 [Compound 408] | 70 | 30 | 30 | 0 | 10 | 90 | 40 | 100 | 100 | 20 | 30 | 100 | 100 | 50 | 70 | 80 | 30 | 50 | 90 | 20 | Barnyardgrass plant response rating [1, 18]: 40; Surinam Grass plant response rating [2, 21]: 20; Cocklebur plant response rating [3, 18]: 70; Cocklebur plant response rating [3, 21]: 60; Corn plant response rating [4, 18]: 10; Corn plant response rating [4, 21]: 10; Crabgrass, Large plant response rating [5, 18]: 50; Crabgrass, Large plant response rating [5, 21]: 30; Foxtail, Giant plant response rating [6, 18]: 50; Foxtail, Giant plant response rating [6, 21]: 30; Lambsquarters plant response rating [7, 21]: 90; Morningglory plant response rating [8, 21]: 10; Pigweed plant response rating [9, 21]: 90; Velvetleaf plant response rating [10, 21]: 30; Blackgrass plant response rating [11, 18]: 80; Blackgrass plant response rating [11, 21]: 40; Wheat plant response rating [12, 21]: 20; Oat, Wild plant response rating [13, 21]: 30 |
| CCc1nn(C(C)C)nc1C(=O)Nc1cccc(C(=S)N(C)C)c1 [Compound 409] | 90 | 90 | 30 | 10 | 50 | 90 | 70 | 100 | 70 | 60 | 70 | 90 | 70 | 30 | 0 | 100 | 10 | 10 | 90 | 0 | Barnyardgrass plant response rating [1, 18]: 0; Surinam Grass plant response rating [2, 21]: 10; Cocklebur plant response rating [3, 18]: 10; Cocklebur plant response rating [3, 21]: 0; Corn plant response rating [4, 18]: 10; Corn plant response rating [4, 21]: 0; Crabgrass, Large plant response rating [5, 18]: 10; Crabgrass, Large plant response rating [5, 21]: 0; Foxtail, Giant plant response rating [6, 18]: 20; Foxtail, Giant plant response rating [6, 21]: 0; Lambsquarters plant response rating [7, 21]: 30; Morningglory plant response rating [8, 21]: 0; Pigweed plant response rating [9, 21]: 30; Velvetleaf plant response rating [10, 21]: 0; Blackgrass plant response rating [11, 18]: 40; Blackgrass plant response rating [11, 21]: 10; Wheat plant response rating [12, 21]: 0; Oat, Wild plant response rating [13, 21]: 0 |
| CCN(C(C)=O)C(=O)c1ccc(F)c(NC(=O)c2cc(C(C)(C)C)nn2CC)c1 [Compound 413] | 40 | 10 | 20 |  | 0 | 20 | 10 |  | 90 | 0 | 70 | 20 | 70 | 0 | 50 | 80 | 10 | 10 | 90 | 10 | Barnyardgrass plant response rating [1, 18]: 20; Surinam Grass plant response rating [2, 21]: 20; Cocklebur plant response rating [3, 18]: 90; Cocklebur plant response rating [3, 21]: 30; Corn plant response rating [4, 18]: 20; Corn plant response rating [4, 21]: 10; Crabgrass, Large plant response rating [5, 18]: 20; Crabgrass, Large plant response rating [5, 21]: 10; Foxtail, Giant plant response rating [6, 18]: 20; Foxtail, Giant plant response rating [6, 21]: 20; Lambsquarters plant response rating [7, 21]: 70; Morningglory plant response rating [8, 21]: 30; Pigweed plant response rating [9, 21]: 50; Velvetleaf plant response rating [10, 21]: 30; Blackgrass plant response rating [11, 18]: 20; Blackgrass plant response rating [11, 21]: 10; Wheat plant response rating [12, 21]: 0; Oat, Wild plant response rating [13, 21]: 0 |
